The structures appear in SMILES notation. “Also recorded” adds a separate entry of the source.

The IC50 is the midpoint of a concentration-inhibition curve. Read a low IC50 as higher potency.

One series relates to HepG2 cells. Put plainly: lipid accumulation assay (Oil Red O staining). The format is cell-based. The conditions noted are these: 72 h. How it is done: HepG2 cells were seeded in collagen-coated 96-well plates at a density of 10^4 cells per well and incubated for 24 h. For the lipolytic mode, the cells were pretreated for additional 24 h with 66.7 μM oleic acid and 33.3 μM palmitic acid in culture medium with 1% bovine serum albumin (BSA). The cells were then treated with DMSO (0.1%) alone or in combination with test compounds in the culture medium. After 72 h, the cells were washed with PBS (2 × 50 μL) and fixed with 10% formalin solution (50 μL) for 15 min. After removal of the fixative, the cells were washed with H2O (2 × 50 μL), followed by 50 μL of 60% iPrOH and incubated with 50 μL Oil Red O solution (0.3% in 60% iPrOH) for 10 min to stain neutral lipids. The cells were washed quickly with 50 μL of 60% iPrOH and 2 × 50 μL of PBS. Microscopic images were taken using a 40x objective on a BZ-X810 microscope (KEYENCE, Frankfurt, Germany). Images were analyzed using ImageJ software (v1.54) according to a literature method.

Another series deals with T1, LXRα (Homo sapiens, UniProt Q13133).
T1 construct: coding for the hinge region, and LBD of the canonical isoform of the respective nuclear receptor; expressed in transfected cells; host or cells: HEK293T
T1 sequence (Q13133 209-447 limits assumed): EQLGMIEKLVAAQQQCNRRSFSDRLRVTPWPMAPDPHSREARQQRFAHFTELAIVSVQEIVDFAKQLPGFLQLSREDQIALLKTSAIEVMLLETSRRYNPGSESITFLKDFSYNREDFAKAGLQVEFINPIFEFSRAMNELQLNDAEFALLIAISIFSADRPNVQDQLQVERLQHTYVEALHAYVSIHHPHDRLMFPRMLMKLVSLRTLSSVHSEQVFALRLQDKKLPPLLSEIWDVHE
Briefly: Gal4-LXRα hybrid reporter gene assay. Type of series: cell-based. The conditions noted are these: for classification: applies to LXRa and LXRb; for LXR modulation in Gal4 hybrid reporter gene assays (mode of action): both LXR subtypes (LXRα and LXRβ). The method, then:
The LXR-responsive reporter ABCA1-pGL3 was used for the full-length reporter gene assay.
The day before transfection, HEK293T cells were seeded in 96-well plates (4 × 10^4 cells/well). Before transfection, the medium was changed to Opti-MEM without any supplements. Transient transfection was carried out using Lipofectamine LTX reagent (Invitrogen) according to the manufacturer’s protocol with (a) pFR-Luc (Stratagene), pRL-SV40 (Promega), and the corresponding Gal4-fusion nuclear receptor plasmid or (b) the LXR-responsive reporter ABCA1-pGL3 and pRL-SV40 (Promega). […] Each concentration was tested in duplicate, and each experiment was repeated in at least three biologically independent repeats. […] Luminescence was measured with a Spark 10 M luminometer (Tecan Deutschland GmbH). Normalization of transfection efficiency and cell growth was done by division of firefly luciferase data by renilla luciferase data multiplied by 1000, resulting in relative light units (RLU). Fold activation was obtained by dividing the mean RLU of the tested compound at a respective concentration by the mean RLU of the untreated 0.1% DMSO control. […] Separate control experiments to exclude nonspecific reporter gene activation or VP16-mediated effects were performed following the same procedure in the absence of a nuclear receptor expression plasmid (pFR-Luc, pRL-SV40, and pECE-SV40-Gal4-VP16 only).
For orientation: Reporter assays use an easily measured gene product as a stand-in for the process of interest.

Series [1] can be described thus: metabolic stability assay in rat liver microsomes. The format is in vitro ADME. The conditions noted are these: 10 μM. The method, then:
The dissolved test compound (5 μL, final concentration 10 μM) was preincubated at 37 °C in 432 μL of phosphate buffer (0.1 M, pH 7.4) together with a 50 μL NADPH regenerating system (30 mM glucose-6-phosphate, 4 U/mL glucose-6-phosphate dehydrogenase, 10 mM NADP, and 30 mM MgCl2). After 5 min, the reaction was started by the addition of 13 μL of microsome mix from the liver of Sprague–Dawley rats (Invitrogen; 20 mg protein/mL in 0.1 M phosphate buffer) in a shaking water bath at 37 °C. The reaction was stopped by the addition of 500 μL of ice-cold methanol at 0, 15, 30, and 60 min. The samples were centrifuged at 5000 g for 5 min at 4 °C. The supernatants were analyzed, and the test compound was quantified by HPLC: The composition of the mobile phase is adapted tot the test compound in a range of 40-90% acetonitrile and 10-60% water (0.1% formic acid); flow rate: 1 mL/min; stationary phase: PurospherⓇ STAR, RP18, 5 μm, 125 × 4, precolumn: PurospherⓇ STAR, RP18, 5 μm, 4 × 4; detection wavelength: 254 and 280 nm; injection volume: 50 μL. […] The amounts of the test compound were quantified by an external calibration curve. Data are expressed as the mean ± SEM remaining compound from three independent experiments.
A general note: Microsomes from liver hold many membrane-bound enzymes, among them those of drug oxidation.

In a further series the test system is APOE. Put plainly: qPCR of LXR-regulated mRNA expression in HepG2: APOE. Type of series: cell-based, human. To be noted: HepG2, 24 h.

In the case of `CCN(C(=O)c1ccccc1)c1ccc(C(O)(C(F)(F)F)C(F)(F)F)cc1` [Compound 1, N-Ethyl-N-(4-[1,1,1,3,3,3-hexafluoro-2-hydroxypropan-2-yl]phenyl)benzamide], the “lipid accumulation (lipogenesis)” value with HepG2 cells (10 μM, compared to T0901317 10 μM) is given as “formation of less lipids in HepG2 cells than the structurally related full agonist T0901317; also recorded: induced lipogenesis after 72 h less efficiently”. Moreover, on LXRα, the classification result is “agonist” and the “LXR modulation in Gal4 hybrid reporter gene assays (mode of action)” value is given as “partial agonists”. Moreover, the EC50 at LXRα (classification agonist, read-out: LXRa pEC50/pIC50 (converted)) was 0.562 µM. For the same compound, the metabolic stability in series [1] is > 60 min. Moreover, the “APOE mRNA expression” value in the series on APOE (3 μM) is recorded as “induced”.
Turning to `CS(=O)(=O)c1cccc(-c2ccc(CN(Cc3cccc(C(F)(F)F)c3Cl)CC(c3ccccc3)c3ccccc3)cc2)c1` [Compound 3, N-(2-Chloro-3-[trifluoromethyl]benzyl)-N-([3′-{methylsulfonyl}-{1,1′-biphenyl}-4-yl]methyl)-2,2-diphenylethan-1-amine], the “effect on T0901317-induced lipogenesis” value in the series with HepG2 cells (30 μM with T0901317 10 μM) is “significantly attenuated T0901317-induced lipogenesis; also recorded: mitigated T090-induced steatosis”. Besides, the “lipid accumulation (lipogenesis)” value in the series with HepG2 cells (30 μM) is listed as “did not induce lipid accumulation; also recorded: did not stimulate lipid accumulation”. In addition, at LXRα, the IC50 is 7.59 µM, the classification entry is listed as “antagonist” and the “LXR modulation in Gal4 hybrid reporter gene assays (mode of action)” value is recorded as “did not activate LXRs but suppressed LXR activation by the reference agonist T0901317”. In series [1], the metabolic stability is > 60 min. Besides, the “APOE mRNA expression” value with APOE (30 μM) is listed as “did not significantly alter the expression; also recorded: only a weak impact”.

The values above are taken from article PMC12621175, “Scaffold Fusion and SAR Transfer with a Chemical Language Model Generates Novel Liver X Receptor Modulators” (Journal of Medicinal Chemistry, 2025).
